# Results from paper PMC8214093, “Structural basis of KdpD histidine kinase binding to the second messenger c-di-AMP” (The Journal of Biological Chemistry, 2021).
# Like-named read-outs stand apart in the source and are kept apart here.
# Experiments:
# [1] = target: T1, USPSa-WT (Staphylococcus aureus, UniProt A0A7U7EVR3); assay: biochemical; assay type: binding; conditions: for Kd: Dissociation Constant (KD) ± Standard Deviation, changes in initial fluorescence
# Experimental: For labeling, the proteins were diluted to a concentration of 800 nM in binding buffer (50 mM potassium phosphate, pH 8.0, 800 mM NaCl, and 0.05% Tween 20), mixed with an equal volume of RED-Tris-NTA dye (80 nM), and incubated on ice in the dark for 30 min. […] The labeled proteins and the ligand dilutions were then mixed in a 1:1 ratio and incubated on ice in the dark for 30 min.
# The samples were then loaded into Monolith standard-treated capillaries in triplicate, and the changes in fluorescence were measured with 40% LED power and 20% IR-laser power for an on-time of 20-s at 23 °C. To determine the binding affinity, the ligand-dependent changes in the intensity of the initial fluorescence, or the thermophoretic mobility, were analyzed according to the law of mass action in a standard fitting mode of MO.Affinity analysis software (version 2.3). To exclude the possibility of nonspecific binding of the ligand to the His6-tag (on USPSa) or ligand-induced USP adsorption to labware or due to aggregation, we performed His6-peptide and EDTA tests, respectively ([91]). […] In the EDTA test, the binding buffer additionally contained 50 mM EDTA to disrupt the interaction between His6-USP and the RED-Tris-NTA dye.
# [2] = target: T2, USPSa-S246A (Staphylococcus aureus, UniProt A0A7U7EVR3, S246A); assay: MicroScale Thermophoresis (initial fluorescence change) nucleotide binding; conditions: S246A mutant
# T2 sequence (A0A7U7EVR3 213-364 S246A): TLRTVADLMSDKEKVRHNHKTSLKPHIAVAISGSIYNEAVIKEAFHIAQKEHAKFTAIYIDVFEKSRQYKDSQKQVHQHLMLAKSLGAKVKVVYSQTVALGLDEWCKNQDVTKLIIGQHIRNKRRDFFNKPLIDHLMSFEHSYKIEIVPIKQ
# Experimental: (§1) The ligand-binding specificity of USPSa, the role of USPSa residues in c-di-AMP binding, and the c-di-AMP binding affinity of USP homologs were biochemically determined by MST, using purified WT and mutant proteins. […] For these MST experiments, WT and active-site mutants of His6-USPSa were first fluorescently labeled using a RED-Tris NTA Monolith His-Tag labeling kit (Nanotemper, Technologies, Inc). For labeling, the proteins were diluted to a concentration of 800 nM in binding buffer (50 mM potassium phosphate, pH 8.0, 800 mM NaCl, and 0.05% Tween 20), mixed with an equal volume of RED-Tris-NTA dye (80 nM), and incubated on ice in the dark for 30 min. The stock solutions of ligands (c-di-AMP, c-di-GMP, ATP, AMP, c-AMP) were serially diluted with the binding buffer in a 1:1 ratio during each dilution step. The labeled proteins and the ligand dilutions were then mixed in a 1:1 ratio and incubated on ice in the dark for 30 min.
# (§2) The samples were then loaded into Monolith standard-treated capillaries in triplicate, and the changes in fluorescence were measured with 40% LED power and 20% IR-laser power for an on-time of 20-s at 23 °C. To determine the binding affinity, the ligand-dependent changes in the intensity of the initial fluorescence, or the thermophoretic mobility, were analyzed according to the law of mass action in a standard fitting mode of MO.Affinity analysis software (version 2.3). To exclude the possibility of nonspecific binding of the ligand to the His6-tag (on USPSa) or ligand-induced USP adsorption to labware or due to aggregation, we performed His6-peptide and EDTA tests, respectively ([91]). In the His6-peptide test, a control His6-peptide was used instead of USP in the binding assay described above, and if no change in initial fluorescence occurred, this confirmed the USP-specific binding of ligands. In the EDTA test, the binding buffer additionally contained 50 mM EDTA to disrupt the interaction between His6-USP and the RED-Tris-NTA dye. The complete loss of the ligand-induced initial fluorescence change in this assay confirmed that this change was neither because of protein aggregation nor because of protein adsorption to labware.
# (§3) The Ka values of WT USPSa for c-di-AMP or AMP were set to 100% relative affinity, and the binding affinities of the other nucleotides (Fig. 1C), or USPSa mutants (Fig. 4E), or USP homologs (Fig. 6, B and C) were depicted as percent values compared with the values of the WT USPSa.
# [3] = target: T3, USPSa-H331A (Staphylococcus aureus, UniProt A0A7U7EVR3, H331A); assay: as above
# T3 sequence (A0A7U7EVR3 213-364 H331A): T2 sequence (A0A7U7EVR3 213-364 S246A)
# Experimental: as §1, §2, §3
# [4] = target: T4, USPSa-A242G (Staphylococcus aureus, UniProt A0A7U7EVR3, A242G); assay: as above; conditions: A242G mutant
# T4 sequence (A0A7U7EVR3 213-364 A242G): T2 sequence (A0A7U7EVR3 213-364 S246A)
# Experimental: as §1, §2, §3
# [5] = target: T5, USPSa-L344A (Staphylococcus aureus, UniProt A0A7U7EVR3, L344A); assay: as above; conditions: L344A mutant
# T5 sequence (A0A7U7EVR3 213-364 L344A): T2 sequence (A0A7U7EVR3 213-364 S246A)
# Experimental: as §1, §2, §3
# [6] = target: T6, USPSa-S244D (Staphylococcus aureus, UniProt A0A7U7EVR3, S244D); assay: as above; conditions: S244D mutant
# T6 sequence (A0A7U7EVR3 213-364 S244D): T2 sequence (A0A7U7EVR3 213-364 S246A)
# Experimental: as §1, §2, §3
# [7] = target: T7, USPSa-Y281F (Staphylococcus aureus, UniProt A0A7U7EVR3, Y281F); assay: as above; conditions: Y281F mutant
# T7 sequence (A0A7U7EVR3 213-364 Y281F): T2 sequence (A0A7U7EVR3 213-364 S246A)
# Experimental: as §1, §2, §3
# [8] = target: USPSa-Q280A (Staphylococcus aureus, UniProt A0A7U7EVR3, Q280A); assay: as above; conditions: Q280A mutant, MST, read-out: Dissociation Constant (KD) ± Standard Deviation
# Experimental: as §1, §2, §3
# [9] = target: USPSa-K282A (Staphylococcus aureus, UniProt A0A7U7EVR3, K282A); assay: as above; conditions: K282A mutant, MST, read-out: Dissociation Constant (KD) ± Standard Deviation
# Experimental: as §1, §2, §3
# [10] = target: T8, USPSa-Y248A (Staphylococcus aureus, UniProt A0A7U7EVR3, Y248A); assay: as above; conditions: Y248A mutant
# T8 sequence (A0A7U7EVR3 213-364 Y248A): T2 sequence (A0A7U7EVR3 213-364 S246A)
# Experimental: as §1, §2, §3
# [11] = target: T9, USPSa-N249A (Staphylococcus aureus, UniProt A0A7U7EVR3, N249A); assay: as above; conditions: N249A mutant; MST, initial fluorescence; read-out: Dissociation Constant (KD) ± Standard Deviation
# T9 sequence (A0A7U7EVR3 213-364 N249A): T2 sequence (A0A7U7EVR3 213-364 S246A)
# Experimental: as §1, §2, §3
# [12] = tested on: USPSa-S244A; assay: as above; design: species or system Staphylococcus aureus; conditions: S244A mutant
# Experimental: as §1, §2, §3
# [13] = target: T10, USPSa-K277A (Staphylococcus aureus, UniProt A0A7U7EVR3, K277A); assay: MicroScale Thermophoresis (thermophoretic mobility change) nucleotide binding; conditions: K277A mutant
# T10 sequence (A0A7U7EVR3 213-364 K277A): T2 sequence (A0A7U7EVR3 213-364 S246A)
# Experimental: as §1, §2, §3
# [14] = target: USPSa-R279A (Staphylococcus aureus, UniProt A0A7U7EVR3, R279A); assay: as above; conditions: R279A mutant; MST, change in thermophoretic mobility; read-out: Dissociation Constant (KD) ± Standard Deviation
# Experimental: as §1, §2, §3
# [15] = target: T1, USPSa-WT; assay: as above; conditions: MST, change in thermophoretic mobility, read-out: Dissociation Constant (KD) ± Standard Deviation
# Experimental: as §1, §2, §3
# [16] = Ka relative to WT USPSa set to 100%
# [17] = MST, initial fluorescence, read-out: Dissociation Constant (KD) ± Standard Deviation
structure (smiles),measurement,setting,value
Nc1ncnc2c1ncn2[C@@H]1O[C@H](COP(=O)(O)O)[C@@H](O)[C@H]1O [AMP],Kd,"[1]; His6-USPSa WT, MST",2.65 ± 1.16 mM
same,"binding affinity, fold lower than that of c-di-AMP","[1]; His6-USPSa WT, MST",> 5000 fold
same,relative binding affinity,[2]; [16],~40%
same,Kd,[2]; [17],7.25 ± 0.21 mM
same,Kd,"[3]; H331A mutant, MST, initial fluorescence, read-out: Dissociation Constant (KD) ± Standard Deviation",4.13 ± 0.11 mM
same,loss of relative binding affinity,"[3]; His331 to Ala mutant, relative to WT USPSa",~60%
same,improvement of binding affinity versus WT USPSa,[4],~25 fold
same,Kd,[4]; [17],0.14 ± 0.01 mM
same,relative affinity,[5]; [16],40%
same,Kd,[5]; [17],4.14 ± 0.9 mM
same,relative binding affinity,[6]; [16],~50%
same,Kd,[6]; [17],4.06 ± 1.94 mM
same,binding relative to WT USPSa,[7]; [16],~30%
same,Kd,[7]; [17],5.15 ± 0.35 mM
same,Kd,[8],1.82 ± 0.25 mM
same,Kd,[9],1.45 ± 0.64 mM
same,relative affinity,[10]; [16],~60%
same,Kd,[10]; [17],5.4 ± 3.81 mM
same,Kd,[11],5.17 ± 3.42 mM
same,binding in MST analysis (in words),[12],did not bind
same,Dissociation Constant (KD) ± Standard Deviation,"[12]; MST, initial fluorescence",No Binding Observed
same,relative binding affinity,[13]; [16],~45%
same,Kd,"[13]; MST, change in thermophoretic mobility, read-out: Dissociation Constant (KD) ± Standard Deviation",50.7 ± 4.03 mM
same,Kd,[14],14.4 ± 0.95 mM
same,Kd,[15],20.7 ± 4.4 mM
"Nc1ncnc2c1ncn2[C@@H]1O[C@H](COP(=O)(O)OP(=O)(O)OP(=O)(O)O)[C@@H](O)[C@H]1O [ATP, adenosine triphosphate]","binding affinity, fold lower than that of c-di-AMP",[1],> 5000 fold
same,Kd,"[1]; His6-USPSa WT, MST",5.15 ± 0.07 mM
"Nc1ncnc2c1ncn2[C@@H]1O[C@@H]2COP(=O)(O)O[C@H]2[C@H]1O [c-AMP, cyclic AMP]",Kd,"[1]; His6-USPSa WT, MST",10 ± 0.71 mM
